Results from PubChem BioAssay AID1963869 (Molecular Pharmacology Branch, DTP, NCI, 2024).

Test system: KRAS patient-derived spheroids with HUVEC/MSC, viability
Test: Anticancer human tumor 323965-272-R-J2-PDC patient-derived pancreatic carcinoma cell line growth inhibition [KRAS2]
Settings: for IC50: curve of first compound; for viability, T/C: stronger effect = lower value
How it was run: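 KRAS-mutant tumor cells were grown as spheroids with HUVEC endothelial cells and human MSCs as stroma. Targeted agents were tested alone and with KRAS pathway inhibitors. Doses started at or near clinical Cmax, or 10 microM, descending half-log.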

[1] = second compound 0.1 µM, first compound 0.01 µM
[2] = second compound 0.1 µM, first compound 0.0316 µM
[3] = second compound 0.1 µM, first compound 0.1 µM
[4] = second compound 0.1 µM, first compound 0.316 µM
[5] = second compound 0.1 µM, first compound 1 µM
[6] = second compound 0.1 µM, first compound 3.16 µM
[7] = second compound 0.316 µM, first compound 0.01 µM
[8] = second compound 0.316 µM, first compound 0.0316 µM
[9] = second compound 0.316 µM, first compound 0.1 µM
[10] = second compound 0.316 µM, first compound 0.316 µM
[11] = second compound 0.316 µM, first compound 1 µM
[12] = second compound 0.316 µM, first compound 3.16 µM
[13] = second compound 1 µM, first compound 0.01 µM
[14] = second compound 1 µM, first compound 0.0316 µM
[15] = second compound 1 µM, first compound 0.1 µM
[16] = second compound 1 µM, first compound 0.316 µM
[17] = second compound 1 µM, first compound 1 µM
[18] = second compound 1 µM, first compound 3.16 µM
[19] = second compound 3.16 µM, first compound 0.01 µM
[20] = second compound 3.16 µM, first compound 0.0316 µM
[21] = second compound 3.16 µM, first compound 0.1 µM
[22] = second compound 3.16 µM, first compound 0.316 µM
[23] = second compound 3.16 µM, first compound 1 µM
[24] = second compound 3.16 µM, first compound 3.16 µM
[25] = second compound 10 µM, first compound 0.01 µM
[26] = second compound 10 µM, first compound 0.0316 µM
[27] = second compound 10 µM, first compound 0.1 µM
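Note: spheroids exposed to agents for 7 days.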
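Throughout, for viability, T/C: 100% = DMSO vehicle control viability.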

Work on CC1COCCN1c1cc(-c2ccnn2C)c2ccnc(-c3ccn[nH]3)c2n1 (stereo not given) + COc1cc2nc(C)nc(NC(C)c3cc(N)cc(C(F)(F)F)c3)c2cc1OC1CCOC1 yielded an IC50 (second compound 0.1 µM) of 14.9 nM, an IC50 (second compound 0.316 µM) of 11 nM and an IC50 (second compound 1 µM) of 11.3 nM. The IC50 (second compound 3.16 µM) was 10.5 nM, the IC50 (second compound 10 µM) was < 10 nM and the viability, T/C [1] was 62%. For the same compound, the viability, T/C [2] was 26.8%, the viability, T/C [3] was 16.5% and the viability, T/C [4] was 12.8%. It also gave a viability, T/C [5] of 11.5%, a viability, T/C [6] of 12.2% and a viability, T/C [7] of 52.5%. For the same compound, the viability, T/C [8] was 24.2%, the viability, T/C [9] was 13.1% and the viability, T/C [10] was 12%. The viability, T/C [11] was 11.6%, the viability, T/C [12] was 11.6% and the viability, T/C [13] was 53.5%. The viability, T/C [14] was 21.4%, the viability, T/C [15] was 12.4% and the viability, T/C [16] was 10.3%. For the same compound, the viability, T/C [17] was 10%, the viability, T/C [18] was 11% and the viability, T/C [19] was 51.4%. For the same compound, the viability, T/C [20] was 19.5%, the viability, T/C [21] was 9.99% and the viability, T/C [22] was 9.71%. For the same compound, the viability, T/C [23] was 9.06%, the viability, T/C [24] was 9.91% and the viability, T/C [25] was 41.9%. For the same compound, the viability, T/C [26] was 20.9%, the viability, T/C [27] was 9.39% and the viability, T/C (second compound 10 µM, first compound 0.316 µM) was 9.15%. For the same compound, the viability, T/C (second compound 10 µM, first compound 1 µM) was 7.92% and the viability, T/C (second compound 10 µM, first compound 3.16 µM) was 6.55%.

In the case of CC1(C)CCC(CN2CCN(c3ccc(C(=O)NS(=O)(=O)c4ccc(NCC5CCOCC5)c([N+](=O)[O-])c4)c(Oc4cnc5[nH]ccc5c4)c3)CC2)=C(c2ccc(Cl)cc2)C1 + C=CC(=O)N1CCN(c2nc(OCC3CCCN3C)nc3c2CCN(c2cccc4cccc(C)c24)C3)CC1CC#N, the IC50 (second compound 0.0316 µM) is reported as 1380 nM, the IC50 (second compound 0.1 µM) is reported as 1360 nM and the IC50 (second compound 0.316 µM) is reported as 1120 nM. The IC50 (second compound 1 µM) was 1030 nM, the IC50 (second compound 3.16 µM) was < 31.6 nM and the viability, T/C (second compound 0.0316 µM, first compound 0.0316 µM) was 65.2%. For the same compound, the viability, T/C (second compound 0.0316 µM, first compound 0.1 µM) was 69.2%, the viability, T/C (second compound 0.0316 µM, first compound 0.316 µM) was 67.2% and the viability, T/C (second compound 0.0316 µM, first compound 1 µM) was 66.6%. For the same compound, the viability, T/C (second compound 0.0316 µM, first compound 3.16 µM) was 6.91%, the viability, T/C (second compound 0.0316 µM, first compound 10 µM) was 1.68% and the viability, T/C [2] was 68.2%. The viability, T/C [3] was 67.1%, the viability, T/C [4] was 60.1% and the viability, T/C [5] was 67.6%. The viability, T/C [6] was 7.16%, the viability, T/C (second compound 0.1 µM, first compound 10 µM) was 1.62% and the viability, T/C [8] was 59.6%. For the same compound, the viability, T/C [9] was 61.6%, the viability, T/C [10] was 61.6% and the viability, T/C [11] was 54.9%. The viability, T/C [12] was 3.92%, the viability, T/C (second compound 0.316 µM, first compound 10 µM) was 2.34% and the viability, T/C [14] was 62.1%. It also gave a viability, T/C [15] of 61.9%, a viability, T/C [16] of 55.6% and a viability, T/C [17] of 51.2%. For the same compound, the viability, T/C [18] was 2.41%, the viability, T/C (second compound 1 µM, first compound 10 µM) was 0.74% and the viability, T/C [20] was 7.81%. The viability, T/C [21] was 6.48%, the viability, T/C [22] was 3.08% and the viability, T/C [23] was 0.59%. It also gave a viability, T/C [24] of 0.43% and a viability, T/C (second compound 3.16 µM, first compound 10 µM) of 0.18%.

For Cn1ncnc1[C@H]1c2n[nH]c(=O)c3cc(F)cc(c23)N[C@@H]1c1ccc(F)cc1 + COc1cc2nc(C)nc(NC(C)c3cc(N)cc(C(F)(F)F)c3)c2cc1OC1CCOC1, the IC50 (second compound 0.1 µM) was > 100 nM, the IC50 (second compound 0.316 µM) was > 100 nM and the IC50 (second compound 1 µM) was > 100 nM. The IC50 (second compound 3.16 µM) was > 100 nM, the IC50 (second compound 10 µM) was > 100 nM and the viability, T/C (second compound 0.1 µM, first compound 0.000316 µM) was 85.1%. It also gave a viability, T/C (second compound 0.1 µM, first compound 0.001 µM) of 82.1%, a viability, T/C (second compound 0.1 µM, first compound 0.00316 µM) of 86.3% and a viability, T/C [1] of 73.6%. For the same compound, the viability, T/C [2] was 76%, the viability, T/C [3] was 70% and the viability, T/C (second compound 0.316 µM, first compound 0.000316 µM) was 79.1%. The viability, T/C (second compound 0.316 µM, first compound 0.001 µM) was 81.4%, the viability, T/C (second compound 0.316 µM, first compound 0.00316 µM) was 71.9% and the viability, T/C [7] was 74.9%. It also gave a viability, T/C [8] of 65.2%, a viability, T/C [9] of 61.5% and a viability, T/C (second compound 1 µM, first compound 0.000316 µM) of 73.3%. The viability, T/C (second compound 1 µM, first compound 0.001 µM) was 80.5%, the viability, T/C (second compound 1 µM, first compound 0.00316 µM) was 69% and the viability, T/C [13] was 67.2%. For the same compound, the viability, T/C [14] was 63.8%, the viability, T/C [15] was 58.1% and the viability, T/C (second compound 3.16 µM, first compound 0.000316 µM) was 79.8%. It also gave a viability, T/C (second compound 3.16 µM, first compound 0.001 µM) of 71.6%, a viability, T/C (second compound 3.16 µM, first compound 0.00316 µM) of 69.6% and a viability, T/C [19] of 64.4%. It also gave a viability, T/C [20] of 65.2%, a viability, T/C [21] of 61% and a viability, T/C (second compound 10 µM, first compound 0.000316 µM) of 75.1%. It also gave a viability, T/C (second compound 10 µM, first compound 0.001 µM) of 79.8%, a viability, T/C (second compound 10 µM, first compound 0.00316 µM) of 76.8% and a viability, T/C [25] of 78.4%. For the same compound, the viability, T/C [26] was 67% and the viability, T/C [27] was 62.4%.
